Measurements reported in ChEMBL document CHEMBL1201862, “PubChem BioAssay data set” (2004).
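Protocol summary: plate cells (96-well), add compound at 5 concentrations, incubate 48 h, interpolate endpoints linearly. GI50 is the concentration that inhibits growth by half.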 Active and inactive are the calls of the source. Cut-off read from the data, not from the text of the source: active = GI50 up to about 1.1 µM and inactive = higher.

What was measured:
Experiment in all cases: NCI anticancer screen, dose series, 48 h
[1] = system: SF-268
[2] = system: Hs-578T
[3] = system: CCRF-CEM
[4] = system: A498
[5] = system: UO-31
[6] = system: PC-3
[7] = system: M14
[8] = system: MDA-N
[9] = system: ACHN
[10] = system: KM12
[11] = system: HL-60
[12] = system: SF-295
[13] = system: EKVX
[14] = system: BT-549
[15] = system: MOLT-4
[16] = system: NCI-H460
[17] = system: OVCAR-4
[18] = system: DU-145
[19] = system: SK-MEL-2
[20] = system: HOP-92

With `OCC(O)C(Cl)CCl` (stereo not given) the GI50 [1] was > 100 µM (inactive), the GI50 [2] was > 100 µM (inactive) and the GI50 [3] was > 100 µM (inactive). For the same compound, the GI50 [4] was > 10 µM (inactive), the GI50 [5] was > 100 µM (inactive) and the GI50 [6] was > 100 µM (inactive). The GI50 [7] was > 100 µM (inactive), the GI50 [8] was > 100 µM (inactive) and the GI50 [9] was > 100 µM (inactive). The GI50 [10] was > 100 µM (inactive), the GI50 [11] was > 100 µM (inactive) and the GI50 [12] was > 100 µM (inactive). The GI50 [13] was > 100 µM (inactive), the GI50 [14] was > 100 µM (inactive) and the GI50 [15] was > 100 µM (inactive). The GI50 [16] was > 100 µM (inactive), the GI50 [17] was > 100 µM (inactive) and the GI50 [18] was > 100 µM (inactive).

For `CCOC(=O)Nc1cc2c(c(N)n1)N=C(c1ccc(OC)cc1)CN2`, the GI50 [1] was 0.00119 µM (active), the GI50 [2] was 0.000494 µM (active) and the GI50 [3] was 0.0016 µM (active). The GI50 [4] was 0.282 µM (active), the GI50 [5] was 0.206 µM (active) and the GI50 [7] was 0.000309 µM (active). The GI50 [8] was < 0.0001 µM (active), the GI50 [9] was 0.00104 µM (active) and the GI50 [19] was < 0.01 µM (active). The GI50 [10] was 0.000446 µM (active), the GI50 [20] was 0.508 µM (active) and the GI50 [11] was 0.0015 µM (active). The GI50 [12] was 0.000269 µM (active), the GI50 [13] was 0.00104 µM (active) and the GI50 [14] was < 0.01 µM (active). The GI50 [15] was < 0.0001 µM (active), the GI50 [16] was 0.00226 µM (active) and the GI50 [17] was 0.757 µM (active). For the same compound, the GI50 [18] was 0.000407 µM (active).

With `CC(C)C/N=C(\N)N=C(N)N` the GI50 [1] was > 100 µM (inactive), the GI50 [2] was > 100 µM (inactive) and the GI50 [5] was > 100 µM (inactive). For the same compound, the GI50 [6] was > 100 µM (inactive), the GI50 [7] was > 100 µM (inactive) and the GI50 [8] was > 100 µM (inactive). For the same compound, the GI50 [9] was > 100 µM (inactive), the GI50 [19] was > 100 µM (inactive) and the GI50 [10] was > 100 µM (inactive). For the same compound, the GI50 [20] was > 100 µM (inactive), the GI50 [11] was > 100 µM (inactive) and the GI50 [12] was > 100 µM (inactive). The GI50 [13] was > 100 µM (inactive), the GI50 [14] was > 100 µM (inactive) and the GI50 [15] was > 100 µM (inactive). For the same compound, the GI50 [16] was > 100 µM (inactive), the GI50 [17] was > 100 µM (inactive) and the GI50 [18] was > 100 µM (inactive).

With `C=CCc1c(O)c2ccccc2[nH]c1=O` the GI50 [2] was > 100 µM (inactive), the GI50 [3] was > 100 µM (inactive) and the GI50 [4] was > 100 µM (inactive). For the same compound, the GI50 [5] was > 100 µM (inactive), the GI50 [6] was > 100 µM (inactive) and the GI50 [8] was > 100 µM (inactive). The GI50 [9] was > 100 µM (inactive), the GI50 [10] was > 100 µM (inactive) and the GI50 [20] was > 100 µM (inactive). For the same compound, the GI50 [11] was > 100 µM (inactive), the GI50 [12] was > 100 µM (inactive) and the GI50 [13] was > 100 µM (inactive). For the same compound, the GI50 [14] was > 100 µM (inactive), the GI50 [15] was > 100 µM (inactive) and the GI50 [16] was > 100 µM (inactive). For the same compound, the GI50 [17] was > 100 µM (inactive) and the GI50 [18] was > 100 µM (inactive).

`c1ccc(C[P+]2(c3ccccc3)c3ccccc3-c3ccccc32)cc1` was tested, and the GI50 [1] was > 100 µM (inactive), the GI50 [2] was > 100 µM (inactive) and the GI50 [3] was > 100 µM (inactive). The GI50 [5] was > 100 µM (inactive), the GI50 [6] was > 100 µM (inactive) and the GI50 [7] was > 100 µM (inactive). The GI50 [8] was > 100 µM (inactive), the GI50 [10] was > 100 µM (inactive) and the GI50 [20] was > 100 µM (inactive). For the same compound, the GI50 [11] was > 100 µM (inactive), the GI50 [12] was > 100 µM (inactive) and the GI50 [13] was > 100 µM (inactive). For the same compound, the GI50 [14] was > 100 µM (inactive), the GI50 [15] was > 100 µM (inactive) and the GI50 [18] was > 100 µM (inactive).

In the case of `C=C1[C@@H](OC(C)=O)/C=C/C2C3C(=O)[C@@](C)(OC(C)=O)[C@H]([C@H](OC(C)=O)[C@]4(O)[C@@H](C)C(=O)O[C@H]4[C@H]1Cl)[C@@]23C` (stereo not given in full), the GI50 [1] is reported as > 100 µM (inactive), the GI50 [2] is reported as > 100 µM (inactive) and the GI50 [3] is reported as > 100 µM (inactive). For the same compound, the GI50 [4] was > 100 µM (inactive), the GI50 [5] was > 100 µM (inactive) and the GI50 [6] was > 100 µM (inactive). For the same compound, the GI50 [7] was > 100 µM (inactive), the GI50 [8] was > 100 µM (inactive) and the GI50 [9] was > 100 µM (inactive). The GI50 [19] was > 100 µM (inactive), the GI50 [10] was > 100 µM (inactive) and the GI50 [20] was > 100 µM (inactive). The GI50 [12] was > 100 µM (inactive), the GI50 [13] was > 100 µM (inactive) and the GI50 [14] was > 100 µM (inactive). For the same compound, the GI50 [15] was > 100 µM (inactive), the GI50 [16] was > 100 µM (inactive) and the GI50 [17] was > 100 µM (inactive). The GI50 [18] was > 100 µM (inactive).

With `CC1CC(OP(=O)(OCc2ccccc2)OCc2ccccc2)[C@@H](OCc2ccccc2)C(OCc2ccccc2)C1OCc1ccccc1` (stereo not given in full) the GI50 [1] was 62.7 µM (inactive), the GI50 [2] was 79.8 µM (inactive) and the GI50 [3] was > 100 µM (inactive). The GI50 [5] was 15.5 µM (inactive), the GI50 [6] was 23.4 µM (inactive) and the GI50 [7] was > 100 µM (inactive). The GI50 [8] was > 100 µM (inactive), the GI50 [9] was 43.9 µM (inactive) and the GI50 [19] was > 100 µM (inactive). For the same compound, the GI50 [11] was 28.5 µM (inactive), the GI50 [12] was 75.5 µM (inactive) and the GI50 [13] was 34.1 µM (inactive). The GI50 [14] was 79.3 µM (inactive), the GI50 [15] was 11.6 µM (inactive) and the GI50 [16] was 34.3 µM (inactive). The GI50 [17] was > 100 µM (inactive) and the GI50 [18] was > 100 µM (inactive).

In the case of `NS(=O)(=O)c1ccc(/N=N/c2nc3nc(O)nc(O)c3[nH]2)cc1`, the GI50 [1] is reported as > 100 µM (inactive), the GI50 [2] is reported as > 100 µM (inactive) and the GI50 [4] is reported as > 100 µM (inactive). For the same compound, the GI50 [5] was > 100 µM (inactive), the GI50 [6] was > 100 µM (inactive) and the GI50 [7] was > 100 µM (inactive). For the same compound, the GI50 [8] was > 100 µM (inactive), the GI50 [9] was > 100 µM (inactive) and the GI50 [19] was > 100 µM (inactive). The GI50 [10] was > 100 µM (inactive), the GI50 [20] was > 100 µM (inactive) and the GI50 [12] was > 100 µM (inactive). For the same compound, the GI50 [13] was > 100 µM (inactive), the GI50 [14] was > 100 µM (inactive) and the GI50 [16] was > 100 µM (inactive). The GI50 [17] was > 100 µM (inactive) and the GI50 [18] was > 100 µM (inactive).
